Data taken from EP3959993B1, “METHOD FOR SOLVENT FREE PRODUCTION OF AROMA CONCENTRATES” (Symrise AG, priority 2020, dated 2022).

Tests used:
[1] = theoretical solubility, values known in the literature; cited from earlier work
[2] = Second oil phase obtained by adding NaCl to the water phase (Example 4); format: physicochemical; conditions: after separating oil phases I and II
Procedure: Cross linked polystyrene was used as adsorbent material. The volume flux for loading the adsorbent was 300 ml/min.
The adsorbent was heated to 150 °C, the temperature of the applied water steam was 160 °C.
The water steam flux was 10 g/min and was applied for 100 min.
The oil and water phases were separated.
A second oil phase was separated and was collected.

[3] = Influence of the amount of NaCl on the distribution between oil phase and water phase (Example 5); format: physicochemical

| Compound | Solubility in water (%) [1] | Loss in the water phase [2] | Distribution in [%] between oil phase and water phase after condensation: Oil phase ([3]; NaCl 0%) | Distribution in [%] between oil phase and water phase after condensation: Water phase ([3]; NaCl 0%) | Distribution in [%] between oil phase and water phase after condensation: Oil phase ([3]; NaCl 27.8 %) | Distribution in [%] between oil phase and water phase after condensation: Water phase ([3]; NaCl 27.8 %) | Distribution in [%] between oil phase and water phase after condensation: Oil phase ([3]; NaCl 41.67%) | Distribution in [%] between oil phase and water phase after condensation: Water phase ([3]; NaCl 41.67%) | Distribution in [%] between oil phase and water phase after condensation: Oil phase ([3]; NaCl 55.56 %) | Distribution in [%] between oil phase and water phase after condensation: Water phase ([3]; NaCl 55.56 %) | Distribution in [%] between oil phase and water phase after condensation: Oil phase ([3]; NaCl 69.44 %) | Distribution in [%] between oil phase and water phase after condensation: Water phase ([3]; NaCl 69.44 %) | Distribution in [%] between oil phase and water phase after condensation: Oil phase ([3]; NaCl 83.33 %) | Distribution in [%] between oil phase and water phase after condensation: Water phase ([3]; NaCl 83.33 %) |
| --- | --- | --- | --- | --- | --- | --- | --- | --- | --- | --- | --- | --- | --- | --- |
| [Cl-].[K+] [Potassium chloride] | 34.7% |  |  |  |  |  |  |  |  |  |  |  |  |  |
| O=P([O-])([O-])OP(=O)([O-])OP(=O)([O-])[O-].[Na+].[Na+].[Na+].[Na+].[Na+] [Triphosphate (Na)] | 14.5% |  |  |  |  |  |  |  |  |  |  |  |  |  |
| CCCCOC(C)=O [butyl acetate] |  | 1,4% | 53.5% | 46.5% | 85.6% | 14.4% | 92.5% | 7.5% | 95% | 5% | 97.5% | 2.5% | 98.6% | 1.4% |
| CCCCCCOC(C)=O [hexyl acetate] |  | 0,0% | 93.4% | 6.6% | 99.4% | 0.6% | 100% | 0% | 100% | 0% | 100% | 0% | 100% | 0% |
